From patent publication US8791132B2, “Compounds and methods for treatment of hypertension” (Medivation Technologies, Inc., priority 2011, dated 2014)

What was measured:
[1] = target: T1, human recombinant adrenergic α2B receptor (Homo sapiens, UniProt P18089); assay: Radioligand binding, adrenergic α2B ([3H]Rauwolscine); settings: read-out: Percentage inhibition of ligand binding, Adrenergic α2B (0.1 μM), compound at 0.1 μM; [3H]Rauwolscine; repeat datapoints each shown
T1 construct: expressed in transfected cells; host or cells: CHO-K1
T1 sequence (P18089 1-450): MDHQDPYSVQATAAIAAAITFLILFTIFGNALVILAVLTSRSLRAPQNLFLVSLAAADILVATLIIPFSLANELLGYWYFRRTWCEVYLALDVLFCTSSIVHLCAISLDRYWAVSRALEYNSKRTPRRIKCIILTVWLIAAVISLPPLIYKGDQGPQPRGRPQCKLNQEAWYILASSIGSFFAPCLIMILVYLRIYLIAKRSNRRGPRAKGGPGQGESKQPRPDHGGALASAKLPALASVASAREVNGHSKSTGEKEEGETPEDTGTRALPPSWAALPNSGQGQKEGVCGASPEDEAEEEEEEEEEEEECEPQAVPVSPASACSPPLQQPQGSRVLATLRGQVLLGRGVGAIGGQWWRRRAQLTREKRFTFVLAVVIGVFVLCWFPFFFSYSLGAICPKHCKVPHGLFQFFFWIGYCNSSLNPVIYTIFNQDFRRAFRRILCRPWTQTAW
Method in brief: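 Receptor expressed in CHO-K1 cells, assayed in 50 mM Tris-HCl pH 7.4 with 12.5 mM MgCl2, 1 mM EDTA and 0.2% BSA. Compounds were incubated with 2.5 nM [3H]Rauwolscine for 60 min at 25° C; 10 μM Prazosin defined non-specific binding. Filter counting gave percent inhibition of specific binding.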

[2] = target: T2, human recombinant adrenergic α2A receptor (Homo sapiens, UniProt P08913); assay: Radioligand binding, adrenergic α2A ([3H]MK-912); settings: read-out: Percentage inhibition of ligand binding, Adrenergic α2A (0.1 μM), compound at 0.1 μM; [3H]MK-912; repeat datapoints each shown
T2 construct: expressed in transfected cells; host or cells: insect Sf9 cells
T2 sequence (P08913 1-465): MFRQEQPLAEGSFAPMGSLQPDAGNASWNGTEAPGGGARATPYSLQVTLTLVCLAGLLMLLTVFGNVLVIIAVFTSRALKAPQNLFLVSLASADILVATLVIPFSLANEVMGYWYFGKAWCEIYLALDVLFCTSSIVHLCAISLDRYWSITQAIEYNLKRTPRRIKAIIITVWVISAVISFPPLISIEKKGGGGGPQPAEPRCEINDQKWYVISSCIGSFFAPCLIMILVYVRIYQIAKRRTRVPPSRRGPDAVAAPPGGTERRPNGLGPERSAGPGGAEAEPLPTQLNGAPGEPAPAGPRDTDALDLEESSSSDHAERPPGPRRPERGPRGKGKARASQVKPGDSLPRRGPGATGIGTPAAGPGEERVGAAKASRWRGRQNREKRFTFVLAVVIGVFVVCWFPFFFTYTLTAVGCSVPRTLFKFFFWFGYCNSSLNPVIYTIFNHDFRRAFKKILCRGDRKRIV
Method in brief: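 In 50 mM Tris-HCl (pH 7.4) containing 12.5 mM MgCl2 and 2 mM EDTA, Sf9-expressed receptor was exposed to test compound plus 1 nM [3H]MK-912 at 25 °C for 60 min. Specific binding, corrected using 10 μM WB-4101, was quantified by filtration and counting and expressed as percent inhibition.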

[3] = target: T3, rat adrenergic α1B receptor (Rattus norvegicus, UniProt P15823); assay: Radioligand binding, adrenergic α1B ([3H]Prazosin); settings: read-out: Percentage inhibition of ligand binding, Adrenergic α1B (0.1 μM), compound at 0.1 μM; [3H]Prazosin; repeat datapoints each shown
T3 construct: rat adrenergic α1B receptor obtained from Wistar Rat liver; from tissue; host or cells: Wistar rat liver
T3 sequence (P15823 1-515): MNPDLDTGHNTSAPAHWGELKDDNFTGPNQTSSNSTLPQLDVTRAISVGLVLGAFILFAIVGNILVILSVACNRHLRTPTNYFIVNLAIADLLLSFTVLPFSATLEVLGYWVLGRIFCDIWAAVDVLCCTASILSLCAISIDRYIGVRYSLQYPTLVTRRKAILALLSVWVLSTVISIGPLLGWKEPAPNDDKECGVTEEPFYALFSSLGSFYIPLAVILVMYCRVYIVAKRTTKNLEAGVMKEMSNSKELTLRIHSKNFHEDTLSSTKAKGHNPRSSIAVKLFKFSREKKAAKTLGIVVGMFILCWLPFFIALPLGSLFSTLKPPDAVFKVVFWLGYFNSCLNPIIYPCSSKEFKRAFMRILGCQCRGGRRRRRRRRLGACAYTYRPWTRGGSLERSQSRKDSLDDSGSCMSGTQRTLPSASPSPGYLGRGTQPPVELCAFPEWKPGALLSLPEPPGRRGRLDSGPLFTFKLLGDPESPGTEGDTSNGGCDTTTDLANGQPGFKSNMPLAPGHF
Method in brief: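 Incubation ran 60 min at 25 °C in Tris-HCl buffer (50 mM, pH 7.4, 0.5 mM EDTA) with Wistar rat liver α1B receptor. 10 μM phentolamine set non-specific binding.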

[4] = target: T4, human recombinant adrenergic α1D receptor (Homo sapiens, UniProt P25100); assay: Radioligand binding, adrenergic α1D ([3H]Prazosin); settings: read-out: Percentage inhibition of ligand binding, Adrenergic α1D (0.1 μM), compound at 0.1 μM; [3H]Prazosin; repeat datapoints each shown
T4 construct: expressed in transfected cells; host or cells: HEK-293
T4 sequence (P25100 1-572): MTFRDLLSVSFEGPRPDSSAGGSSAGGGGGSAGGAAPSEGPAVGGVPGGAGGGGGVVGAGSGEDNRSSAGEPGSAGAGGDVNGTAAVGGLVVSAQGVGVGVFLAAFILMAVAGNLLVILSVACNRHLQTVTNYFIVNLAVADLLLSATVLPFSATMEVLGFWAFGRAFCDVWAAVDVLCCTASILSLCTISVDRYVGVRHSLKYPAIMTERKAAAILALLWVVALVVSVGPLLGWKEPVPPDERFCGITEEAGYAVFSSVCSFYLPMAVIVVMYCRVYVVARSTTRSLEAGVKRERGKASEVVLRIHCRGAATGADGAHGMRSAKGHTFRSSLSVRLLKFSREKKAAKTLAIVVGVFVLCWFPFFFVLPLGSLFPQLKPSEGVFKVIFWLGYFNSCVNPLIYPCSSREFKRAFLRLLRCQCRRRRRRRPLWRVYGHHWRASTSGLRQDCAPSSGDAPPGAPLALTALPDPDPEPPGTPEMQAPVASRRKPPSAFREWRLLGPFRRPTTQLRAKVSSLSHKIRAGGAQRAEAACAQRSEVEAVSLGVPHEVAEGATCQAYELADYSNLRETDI
Procedure: Compounds were incubated with 0.6 nM [3H]Prazosin for 60 min at 25° C. Non-specific binding was estimated in the presence of 10 μM phentolamine. Receptor proteins were filtered and washed, the filters were then counted to determine [3H]Prazosin specifically bound. […] Biochemical assay results are presented as the percent inhibition of specific binding in Table B1.

Structure (SMILES)	inhibition at 0.1 µM [1]	inhibition at 0.1 µM [2]	inhibition at 0.1 µM [3]	inhibition at 0.1 µM [4]
Cc1ccc(C#Cn2c3c(c4cc(Cl)ccc42)C2CCC(C3)N2C)cn1 (stereo not drawn) [compound 95]	105%	9%	52%	29%
C/C(=C\n1c2c(c3cc(C)ccc31)CCN(C)C2C)c1ccccc1F (stereo not drawn) [compound 96]	71%	29%	25%	3%
C/C(=C\n1c2c(c3cc(Cl)ccc31)C1CCC(C2)N1C)c1cccnc1 (stereo not drawn) [compound 97]	88%	-12%	3%	-7%
C/C(=C\n1c2c(c3cc(C)ccc31)CCN(C)CC2)c1ccncc1 [compound 99]	85%	29%	69%	34%
COc1ccc2c(c1)c1c(n2/C=C(/C)c2ccncc2)CCN(C)C1 [compound 100]	72%	20%	73%	47%
Cc1ccc2c(c1)c1c(n2CC(C)(F)c2ccncc2)CCN(C)C1 (stereo not drawn) [compound 102]	77%	21%	40%	21%
C/C(=C\n1c2c(c3cc(C)ccc31)CNCC2)c1ccncc1 [compound 103]	80%	19%	49%	20%
Cc1ccc2c(c1)c1c(n2/C=C(\F)c2ccncc2)CCN(C)C1 [compound 105]	68%	14%	57%	36%
C/C(=C\n1c2c(c3cc(C)ccc31)CCN(C)CC2)c1ccncn1 [compound 106]	79%	6%	65%	45%
CNC(=O)c1cccc(/C(C)=C/n2c3c(c4cc(C)ccc42)CN(C)CC3)c1 [compound 107]	85%	10%	56%	63%
C/C(=C\n1c2c(c3cc(C)ccc31)CN(C)CC2)c1ccnn1C [compound 108]	88%	20%	42%	21%
C/C(=C\n1c2c(c3cc(C)ccc31)CN(C)CC2)c1cnn(C)c1 [compound 109]	69%	25%	13%	21%
C/C(=C\n1c2c(c3cc(C)ccc31)CN(C)CC2)c1c(C)noc1C [compound 110]	62%	27%	5%	35%
CC(=O)Nc1ccc(/C(C)=C\n2c3c(c4cc(C)ccc42)CN(C)CC3)cn1 [compound 111]	65%	0%	56%	77%
CC(=O)Nc1ccc(/C(C)=C/n2c3c(c4cc(C)ccc42)CN(C)CC3)cn1 [compound 112]	79%	26%	44%	40%
C/C(=C\n1c2c(c3cc(C)ccc31)CN(C)CC2)c1cccc2ccccc12 [compound 113]	87%	29%	12%	3%
C/C(=C\n1c2c(c3cc(C)ccc31)CN(C)CC2)c1cn[nH]c1 [compound 115]	94%	21%	19%	24%
C=C(Cn1c2c(c3cc(Cl)ccc31)CN(C)CC2)c1ccncc1 [compound 116]	75%	22%	23%	26%
C=C(n1ccnc1)n1c2c(c3cc(C)ccc31)CN(C)CC2 [compound 118, 5-(1-imidazol-1-yl-vinyl)-2,8-dimethyl-2,3,4,5-tetrahydro-1H-pyrido[4,3-b]indole]	60%	19%	35%	7%
Cc1ccc(CCn2c3c(c4ccc(C(F)(F)F)cc42)CN(C)CC3)cn1 [compound 119]	60%	14%	14%	-6%
C=C(Cn1c2c(c3cc(C)ccc31)CN(C)CC2)c1ccncc1 [compound 121]	88%	16%	6%	44%
CNC(=O)c1ccc(/C(C)=C/n2c3c(c4cc(C)ccc42)CN(C)CC3)cn1 [compound 122]	96%	13%	51%	84%
C/C(=C\n1c2c(c3cc(C)cnc31)CN(C)CC2)c1ccncc1 [compound 124]	63%	-2%	19%	12%
C/C(=C\n1c2c(c3cc(C)ccc31)CN(C)CC2)c1ccc(CO)nc1 [compound 125, (E)-(5-(1-(2,8-dimethyl-3,4-dihydro-1H-pyrido[4,3-b]indol-5(2H)-yl)prop-1-en-2-yl)pyridin-2-yl)methanol]	68%	-4%	-3%	1%
